In patent US10675321B2, “Botanical extracts and compounds from Castanea plants and methods of use” (priority 2015, dated 2020):
In brackets after ≈: the same amount, converted by molar mass.

How the values were obtained:
Type in all cases: cell-based
[1] = system: Staphylococcus aureus AH1872; assay: microbe, parasite or virus in culture; details: AH1872, 18 h
[2] = system: Staphylococcus aureus AH430; assay: MIC by microtiter broth dilution, strain AH430; details: 18 hrs static; for MIC50: at least 50% inhibition of growth by OD; for MIC90: at least 90% inhibition of growth by OD
[3] = system: Propionibacterium acnes ATCC6919; assay: Growth inhibition (MIC) of Propionibacterium acnes ATCC6919; details: Cutibacterium acnes
[4] = system: Propionibacterium acnes HL005PA2; assay: Growth inhibition (MIC) of Propionibacterium acnes HL005PA2; details: Cutibacterium acnes, P. acnes HL005PA2
[5] = system: Staphylococcus aureus UAMS-1; assay: MIC by microtiter broth dilution, strain UAMS-1; details: 18 hrs static
[6] = system: Staphylococcus aureus AH1747; assay: MIC by microtiter broth dilution, strain AH1747; details: 18 hrs static

Row | Compound | MIC50 [1] [µg/mL] | MIC90 [1] [µg/mL] | MIC50 [2] [µg/mL] | MIC90 [2] [µg/mL] | MIC50 [3] [µg/mL] | MIC90 [3] [µg/mL] | MIC50 ([4]; 50% inhibition of the growth control) [µg/mL] | MIC90 ([4]; 90% inhibition) [µg/mL] | MIC50 ([5]; UAMS1, 50% inhibition of growth) [µg/mL] | MIC90 ([5]; UAMS1, 90% inhibition of growth) [µg/mL] | MIC50 ([6]; 50% inhibition of growth) [µg/mL] | MIC90 ([6]; 90% inhibition of growth) [µg/mL]
1 | CC1(C)S[C@@H]2[C@H](NC(=O)[C@H](N)c3ccccc3)C(=O)N2[C@H]1C(=O)O [Amp, Ampicillin] | 4 (≈ 11.4 µM) | 8 (≈ 22.9 µM) | 0.0625 (≈ 0.179 µM) | 0.125 (≈ 0.358 µM) | – | – | – | – | – | – | – | –
2 | CCC[C@@H]1C[C@@H](C(=O)N[C@@H]([C@H]2O[C@H](SC)[C@H](O)[C@@H](O)[C@H]2O)[C@H](C)Cl)N(C)C1 [Clin, clindamycin] | – | – | – | – | 0.125 (≈ 0.294 µM) | 0.125 (≈ 0.294 µM) | 0.0625 (≈ 0.147 µM) | 0.25 (≈ 0.588 µM) | – | – | – | –
3 | NC[C@H]1O[C@H](O[C@H]2[C@H](O)[C@@H](O[C@H]3O[C@H](CO)[C@@H](O)[C@H](N)[C@H]3O)[C@H](N)C[C@@H]2N)[C@H](O)[C@@H](O)[C@@H]1O [Kan, Kanamycin] | 1 (≈ 2.06 µM) | 4 (≈ 8.26 µM) | 2 (≈ 4.13 µM) | 4 (≈ 8.26 µM) | – | – | – | – | 2 (≈ 4.13 µM) | 4 (≈ 8.26 µM) | 1 (≈ 2.06 µM) | 2 (≈ 4.13 µM)
